What was measured:
[1] = system: podocytes (1-1P4G5 podocyte clone); assay: Podocyte mitochondrial biogenesis (FCCP-uncoupled oxygen consumption rate); assay type: cell-based; details: Mus musculus; differentiated podocytes, FCCP 1 μM uncoupled rate normalized to vehicle, Hill fit
Description: Fully differentiated podocytes were assayed using increased mitochondrial reserve capacity (measured as FCCP-uncoupled oxygen consumption rate) as a measure of mitochondrial biogenesis.
For these studies the 1-1P4G5 podocyte clone developed in the Kopp lab at the NIH were used. (25) These cells expressed a SV40-driven temperature sensitive T antigen that enabled the cells to proliferate in an undifferentiated state at the permissive temperature of 33° C. and then after 5 days of culture at 37° C. the cells are fully differentiated as mature podocytes. The differentiated cells were maintained in Advanced RPMI 1640 with 10% fetal calf serum and then plated at 1.5 million cells/96-well Seahorse plate for 48 h prior to treatment with test compound, vehicle control (VC) or validated 5-HT1F agonists. The plates were then transferred to a Seahorse XF96 Instrument during which basal and FCCP-uncoupled rates were measured (the [FCCP]=1 μM). Drugs were treated at a range of 1 nM, 10 nM, 100 nM, 500 nM, and 1 μM and the uncoupled rates were normalized to vehicle control, <0.2% DMSO in media. The doses responses were fit to a Hill function and the EC50 values were calculated from the non-linear regression.

[2] = system: renal proximal tubule cells; assay: In-vitro mitochondrial biogenesis dose response (FCCP-uncoupled OCR, Seahorse); assay type: cell-based; details: Oryctolagus cuniculus; rabbit renal proximal tubule cells, 24 h incubation, uncoupled OCR normalized to vehicle, Hill fit, N=4-6
Description: OCRs were measured using a Seahorse Bioscience analyzer (North Billerica, Mass.) before (basal) and after addition of […] FCCP, an ionophore that uncouples electron transport from ATP generation. The selective 5-HT1F receptor agonists LY334370 (4-fluoro-N-[3-(1-methyl-4-piperidinyl)-1H-indol-5-yl]benzamide) and LY344864 (N-[(3R)-3-(dimethylamino)-2,3,4,9-tetrahydro-1H-carbazol-6-yl]-4-fluorobenzamide), and the nonselective 5-HT receptor agonist a-methyl 5-HT were purchased from Tocris (Ellisville, Mo.).
In-vitro mitochondrial biogenesis dose responses (reported as EC50 values) were determined from a modification of the assay described in Example 21. […] Compounds were incubated at different doses with renal cells for 24 h after which their basal respiration and elevated FCCP-induced uncoupled oxygen consumption rates (OCRs) were measured using a Seahorse Bioscience analyzer (Beeson et al., 2010). Uncoupled OCRs were normalized to vehicle control OCRs and the rates that decrease at high concentrations of drug were eliminated. The remaining dose-dependent responses were fit to a standard Hill equation using non-linear regression to obtain the EC50 values for replicates of N=4-6 where N is the number of individual rabbit renal cell isolations tested for each compound.

RPTC = details: cited from earlier work; for maximal mitochondrial respiration / mitochondrial proteins (ATP synthase β, Cox1, NDUFB8): RPTC, 1-100 nM
[3] = system: ischemia/reperfusion-induced AKI; details: following ischemia/reperfusion-induced AKI; cited from earlier work
[4] = system: murine renal cortex, heart, and liver; details: cited from earlier work
[5] = system: murine model of glomerular disease; assay: Nephrotoxic serum (NTS) induced chronic kidney disease model, albuminuria; assay type: in vivo, mouse; details: C57/BL mice, 2 mg/kg once per day, FIG. 1
Description: Renal dysfunction was modeled in mice using the nephrotoxic serum (NTS) induced model. The classical Adriamycin model for glomerular studies relies critically on dosing profiles, has resistance in some murine species, off-target effects in others, and required days (10 days) instead of hours for observable albuminuria (marker for renal compromise, determined by urine collection) compared to the NTS counterpart. (Mallipattu, S. K.; He, J. C. Am. J. Physiol. Renal Physiol. 2016, 311, F46-F51; Pippin, J. W.; Brinkkoetter, P. T.; Cormack-Aboud, F. C.; Durvasula, R. V.; Hauser, P. V.; Kowalewska, J.; Krofft, R. D.; Logar, C. M.; Marshall, C. B.; Ohse, T.; Shankland, S. J. Am. J. Physiol. Renal Physiol. 2009, 296, F213-F229). Conversely, the NTS model is quick onset (4 h) and has wide species reproducibility.
In this experiment, induction of the nephrotoxic serum (NTS) model ([…] injection) for glomerular decline was performed using C57/BL mice (15 mice total).
Urine albumin/creatinine ratios were measured in control (NTS+vehicle) and drug treated mice (NTS+drug (example 6) for pre-injection, day 2, day 6, day 12 and day 14. Drug was administered once per day at 2 mg/kg. Thus, it is expected that the compounds of the invention are useful to treat chronic kidney disease.

In the case of `COc1cc(OC)c2ncc(C(=O)N3CCN(C)CC3)c(O)c2c1` [Example 5, (4-hydroxy-6,8-dimethoxyquinolin-3-yl)(4-methylpiperazin-1-yl)methanone], the EC50 [1] is reported as 100 nM and the EC50 [2] is reported as 1 nM.

Compound `COCC(=O)N1CCc2ccc(N(S(=O)(=O)c3ccccc3)S(=O)(=O)c3ccccc3)cc21` [Example 19, N-(1-(2-methoxyacetyl)indolin-6-yl)-N-(phenylsulfonyl)benzenesulfonamide] has an EC50 [1] of 20 nM and an EC50 [2] of 2 nM.

Work on `CN1CCCN(C(=O)c2cccc(NC(=O)c3c(F)cc(F)cc3F)n2)CC1` [Example 7, 2,4,6-trifluoro-N-(6-(4-methyl-1,4-diazepane-1-carbonyl)pyridin-2-yl)benzamide] yielded an EC50 [2] of 0.2 nM.

`COCC(=O)N1CCc2ccc(Nc3nc4ccccc4o3)cc21` [Example 12, 1-(6-(benzo[d]oxazol-2-ylamino)indolin-1-yl)-2-methoxyethan-1-one] showed an EC50 [2] of 2 nM.

For `CN1CCN(C(=O)c2cccc(NC(=O)N(C)C)n2)CC1` [Example 9, 1,1-dimethyl-3-(6-(4-methylpiperazine-1-carbonyl)pyridin-2-yl)urea], the EC50 [2] was 0.2 nM.

In the case of `COc1cc(CC(C)N)c(OC)cc1I.Cl` (stereo not shown) [DOT, 1-(2,5-dimethoxy-4-iodophenyl)-2-aminopropane hydrochloride], the “recovery of mitochondrial function” value (RPTC; renal proximal tubular cells, following oxidant injury) is given as “accelerated the recovery of mitochondrial function” and the “induction of MB” value (RPTC; renal proximal tubular cells) is given as “potent inducer of MB”.

For `CN(C)[C@@H]1CCc2[nH]c3ccc(NC(=O)c4ccc(F)cc4)cc3c2C1` [LY344864, N-[(3R)-3-(dimethylamino)-2,3,4,9-tetrahydro-1H-carbazol-6-yl]-4-fluorobenzamide], the “recovery of renal function (BUN, KIM-1, mtDNA copy number)” value [3] is listed as “accelerated recovery of renal function”, the maximal mitochondrial respiration (RPTC) is listed as “increased” and the “mitochondrial proteins (ATP synthase β, Cox1, NDUFB8)” value (RPTC) is listed as “increased”. For the same compound, the “PGC-1α, Cox1 and NDUFB8 transcript levels and mtDNA copy number” value [4] was “increased”.

In the case of `COCC(=O)N1CCc2ccc(NC(=O)c3ccc(F)cc3F)cc21` [Example 13, 2,4-difluoro-N-(1-(2-methoxyacetyl)indolin-6-yl)benzamide], the EC50 [2] is reported as 0.02 nM.

In the case of `CN1CCC(c2c[nH]c3ccc(NC(=O)c4ccc(F)cc4)cc23)CC1` [LY334370, 4-fluoro-N-[3-(1-methyl-4-piperidinyl)-1H-indol-5-yl]benzamide], the maximal mitochondrial respiration (RPTC) is given as “increased” and the “mitochondrial proteins (ATP synthase β, Cox1, NDUFB8)” value (RPTC) is given as “increased”.

`COCC(=O)N1CCc2ccc(Nc3nc4ccccc4[nH]3)cc21` [Example 14, 1-(6-((1H-benzo[d]imidazol-2-yl)amino)indolin-1-yl)-2-methoxyethan-1-one] gave an EC50 [2] of 0.02 nM.

Work on `CN1CCC(C(=O)c2cccc(NC(=O)c3c(F)cc(F)cc3F)n2)CC1` [Example 24, 2,4,6-trifluoro-N-(6-(1-methylpiperidine-4-carbonyl)pyridin-2-yl)benzamide, reference compound] yielded an EC50 [1] of 20 nM and an EC50 [2] of 0.6 nM.

With `COCCNC(=O)c1cnc2ccc(OC)cn2c1=O` [Example 1, 7-methoxy-N-(2-methoxyethyl)-4-oxo-4H-pyrido[1,2-a]pyrimidine-3-carboxamide] the EC50 [2] was 0.02 nM.

In the case of `COCC(=O)N1CCc2ccc(NC(=O)c3ccc(F)c(F)c3)cc21` [Example 15, 3,4-difluoro-N-(1-(2-methoxyacetyl)indolin-6-yl)benzamide], the EC50 [2] is reported as 0.2 nM.

`Cc1ccc(S(=O)(=O)Nc2cccc(C(=O)N3CCN(C)CC3)n2)cc1` [Example 8, 4-methyl-N-(6-(4-methylpiperazine-1-carbonyl)pyridin-2-yl)benzenesulfonamide] showed an EC50 [2] of 0.2 nM.

Compound `CN1CCN(C(=O)c2cccc(Nc3nc4ccccc4[nH]3)n2)CC1` [Example 10, (6-((1H-benzo[d]imidazol-2-yl)amino)pyridin-2-yl)(4-methylpiperazin-1-yl)methanone] has an EC50 [2] of 0.2 nM.

With `COCCNC(=O)c1cnc2c(OC)cc(OC)cc2c1O` [Example 4, 4-hydroxy-6,8-dimethoxy-N-(2-methoxyethyl)quinoline-3-carboxamide] the EC50 [1] was 20 nM and the EC50 [2] was 2 nM.

Work on `CCN(CC)CC(=O)N1CCc2ccc(NC(=O)c3ccccc3)cc21` [Example 26, N-(1-(diethylglycyl)indolin-6-yl)benzamide] yielded an EC50 [1] of 20 nM.

`O=C(Nc1ccc2c(c1)N(C(=O)CN1CCOCC1)CC2)c1ccccc1` [Example 27, N-(1-(2-morpholinoacetyl)indolin-6-yl)benzamide] gave an EC50 [1] of 20 nM.

`COCC(=O)N1CCc2ccc(N(C)C(=O)c3c(F)cc(F)cc3F)cc21` [Example 16, 2,4,6-trifluoro-N-(1-(2-methoxyacetyl)indolin-6-yl)-N-methylbenzamide] gave an EC50 [2] of 0.002 nM.

Work on `CN1CCN(C(=O)c2cccc(NC(=O)c3ccccc3)n2)CC1` [Example 11, N-(6-(4-methylpiperazine-1-carbonyl)pyridin-2-yl)benzamide] yielded an EC50 [2] of 2 nM.

With `COCC(=O)N1CCc2ccc(NC(=O)c3cc(F)cc(F)c3)cc21` [Example 17, 3,5-difluoro-N-(1-(2-methoxyacetyl)indolin-6-yl)benzamide] the EC50 [2] was 0.02 nM.

In the case of `COCCNC(=O)c1cnc2ccc(NCCOC)cn2c1=O` [Example 2, N-(2-methoxyethyl)-7-((2-methoxyethyl)amino)-4-oxo-4H-pyrido[1,2-a]pyrimidine-3-carboxamide], the EC50 [2] is reported as 0.02 nM.

For `CN1CCN(C(=O)c2cccc(NC(=O)c3c(F)cc(F)cc3F)n2)CC1` [Example 6, 2,4,6-trifluoro-N-(6-(4-methylpiperazine-1-carbonyl)pyridin-2-yl)benzamide], the EC50 [1] was 100 nM, the EC50 [2] was 2 nM and the “albuminuria (urine albumin/creatinine ratio)” value [5] was “attenuated albuminuria”.

Compound `COCC(=O)N1CCc2ccc(NC(=O)c3cccc(Br)c3)cc21` [Example 20, 3-bromo-N-(1-(2-methoxyacetyl)indolin-6-yl)benzamide] has an EC50 [2] of 0.02 nM.

Work on `COCCNC(=O)c1cnc(N)n(CCOC)c1=O` [Example 3, 2-amino-N,1-bis(2-methoxyethyl)-6-oxo-1,6-dihydropyrimidine-5-carboxamide] yielded an EC50 [2] of 20 nM.

Work on `CN(C)CC(=O)N1CCc2ccc(NS(=O)(=O)c3ccccc3)cc21` [Example 25, N-(1-(dimethylglycyl)indolin-6-yl)benzenesulfonamide] yielded an EC50 [1] of 0.2 nM.
